# Test results as given in US20240158348A1, “HERBICIDAL CYCLIC AMIDES N-SUBSTITUTED WITH A HALOALKYLSULFONYLANILIDE GROUP” (FMC Corporation, priority 2021, published 2024).
# How the values were obtained:
# Format in all cases: in vivo
# [1] = test system: oat, wild (wild oat, Avena fatua); experiment: Test C preemergence, wild oat; settings: 0 is no effect, 100 is complete control
# How it was run: (§1)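 Pre: soil sprayed at seeding. Post: seedlings treated at 1–2 leaves (2–10 cm). Vehicle non-phytotoxic solvent mix with surfactant; loam–sand medium; greenhouse; visual injury read at 10 or 12 days, scale 0–100.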
# [2] = test system: foxtail, giant (giant foxtail, Setaria faberi); experiment: Test C preemergence, giant foxtail; settings: 0 is no effect, 100 is complete control
# How it was run: as §1
# [3] = test system: blackgrass (Alopecurus myosuroides); experiment: Test C postemergence, blackgrass; settings: 31 g ai/ha Postemergence; visual injury, 0 to 100 scale (0 no effect, 100 complete control)
# How it was run: as §1
# [4] = test system: soybean (Glycine max); experiment: Test C preemergence, soybean; settings: 0 is no effect, 100 is complete control
# How it was run: as §1
# [5] = test system: pigweed, palmer (palmer amaranth, Amaranthus palmeri); experiment: Test C preemergence, palmer amaranth; settings: 0 is no effect, 100 is complete control
# How it was run: as §1
# [6] = test system: galium (catchweed bedstraw, Galium aparine); experiment: Test C postemergence, galium
# [7] = test system: foxtail, giant (giant foxtail, Setaria faberi); experiment: Test C postemergence, giant foxtail
# [8] = test system: blackgrass (Alopecurus myosuroides); experiment: Test C preemergence, blackgrass; settings: 0 is no effect, 100 is complete control
# How it was run: as §1
# [9] = test system: kochia (Bassia scoparia); experiment: Test C postemergence, kochia
# How it was run: as §1
# [10] = test system: ryegrass, Italian (Italian ryegrass, Lolium multiflorum); experiment: Test C preemergence, Italian ryegrass; settings: 0 is no effect, 100 is complete control
# How it was run: as §1
# [11] = test system: ragweed (common ragweed, Ambrosia artemisiifolia); experiment: Test C postemergence, ragweed; settings: visual injury, 0 to 100 scale (0 no effect, 100 complete control)
# How it was run: as §1
# [12] = test system: corn (Zea mays); experiment: Test C postemergence, corn
# [13] = test system: wheat (Triticum aestivum); experiment: Test C preemergence, wheat; settings: 0 is no effect, 100 is complete control
# [14] = test system: kochia (Bassia scoparia); experiment: Test C preemergence, kochia; settings: 0 is no effect, 100 is complete control
# How it was run: as §1
# [15] = test system: corn (Zea mays); experiment: Test C preemergence, corn; settings: 0 is no effect, 100 is complete control
# How it was run: (§2)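 Visual injury rating, 0 (no effect) to 100 (complete control), versus untreated controls after 10 or 12 days in the greenhouse. Compounds were formulated in non-phytotoxic solvent plus surfactant and applied either as a directed soil spray at sowing or onto emerged one- to two-leaf plants.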
# [16] = test system: oat, wild (wild oat, Avena fatua); experiment: Test C postemergence, wild oat
# [17] = test system: ryegrass, Italian (Italian ryegrass, Lolium multiflorum); experiment: Test C postemergence, Italian ryegrass; settings: visual injury, 0 to 100 scale (0 no effect, 100 complete control)
# How it was run: as §1
# [18] = test system: goosegrass (Eleusine indica); experiment: Test C preemergence, goosegrass; settings: 0 is no effect, 100 is complete control
# How it was run: as §2
# [19] = test system: rice (Oryza sativa); experiment: Test D flooded paddy test, rice; set-up: key: 0 = no effect, 100 = complete control; settings: 250 g ai/ha, Flood; applied to paddy water at 2-leaf stage; visual rating after 13 days; scale 0 (no effect) to 100 (complete control)
# How it was run: (§3)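 Plants were grown to the 2-leaf stage, then pots were flooded to 3 cm above soil and compounds applied directly into the paddy water, with that depth held throughout. After 13 days in a greenhouse, injury was visually rated against untreated controls on a 0–100 scale (0 no effect, 100 complete control).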
# [20] = test system: pigweed, palmer (palmer amaranth, Amaranthus palmeri); experiment: Test C postemergence, palmer amaranth; settings: visual injury, 0 to 100 scale (0 no effect, 100 complete control)
# How it was run: as §1
# [21] = test system: goosegrass (Eleusine indica); experiment: Test C postemergence, goosegrass
# How it was run: as §1
# [22] = test system: blackgrass (Alopecurus myosuroides); experiment: Test C postemergence, blackgrass; settings: 125 g ai/ha Postemergence; 0 is no effect, 100 is complete control
# [23] = test system: sedge, umbrella (small-flower umbrella sedge, Cyperus difformis); experiment: Test D flooded paddy test, umbrella sedge; set-up: key: 0 = no effect, 100 = complete control; settings: 250 g ai/ha, Flood; applied to paddy water at 2-leaf stage; visual rating after 13 days; scale 0 (no effect) to 100 (complete control)
# How it was run: as §3
# [24] = test system: horseweed (Erigeron canadensis); experiment: Test C postemergence, horseweed
# How it was run: as §1
# [25] = test system: ducksalad (Heteranthera limosa); experiment: Test D flooded paddy test, ducksalad; set-up: key: 0 = no effect, 100 = complete control; settings: 250 g ai/ha, Flood; applied to paddy water at 2-leaf stage; visual rating after 13 days; scale 0 (no effect) to 100 (complete control)
# How it was run: as §3
# [26] = test system: barnyardgrass (Echinochloa crusgalli); experiment: Test D flooded paddy test, barnyardgrass; set-up: key: 0 = no effect, 100 = complete control; settings: 250 g ai/ha, Flood; applied to paddy water at 2-leaf stage; visual rating after 13 days; scale 0 (no effect) to 100 (complete control)
# How it was run: as §3
# [27] = test system: ragweed (common ragweed, Ambrosia artemisiifolia); experiment: Test C preemergence, ragweed; settings: 0 is no effect, 100 is complete control
# How it was run: as §2
# [28] = test system: soybean (Glycine max); experiment: Test C postemergence, soybean; settings: visual injury, 0 to 100 scale (0 no effect, 100 complete control)
# [29] = test system: wheat (Triticum aestivum); experiment: Test C postemergence, wheat; settings: visual injury, 0 to 100 scale (0 no effect, 100 complete control)
# How it was run: as §1
# [30] = 31 g ai/ha Postemergence, visual injury, 0 to 100 scale (0 no effect, 100 complete control)
# [31] = 125 g ai/ha Postemergence, 0 is no effect, 100 is complete control
structure (smiles),measurement,setting,value
Cc1cc(C)c(N2CCC(OC3COC3)C2=O)cc1NS(=O)(=O)C(F)(F)F (stereo not shown) [Compound 34],"Plant response rating (0 to 100 scale), Oat, Wild",[1]; 31 g ai/ha Preemergence,30
same,"Plant response rating (0 to 100 scale), Oat, Wild",[1]; 125 g ai/ha Preemergence,80
same,"Plant response rating (0 to 100 scale), Foxtail, Giant",[2]; 31 g ai/ha Preemergence,90
same,"Plant response rating (0 to 100 scale), Foxtail, Giant",[2]; 125 g ai/ha Preemergence,90
same,Blackgrass plant response rating,[3],30
same,"Plant response rating (0 to 100 scale), Soybean",[4]; 31 g ai/ha Preemergence,40
same,"Plant response rating (0 to 100 scale), Soybean",[4]; 125 g ai/ha Preemergence,90
same,"Plant response rating (0 to 100 scale), Pigweed, Palmer",[5]; 31 g ai/ha Preemergence,100
same,"Plant response rating (0 to 100 scale), Pigweed, Palmer",[5]; 125 g ai/ha Preemergence,100
same,Galium plant response rating,[6]; [30],100
same,"Plant response rating (0 to 100 scale), Galium",[6]; [31],100
same,"Foxtail, Giant plant response rating",[7]; [30],40
same,"Plant response rating (0 to 100 scale), Foxtail, Giant",[7]; [31],90
same,"Plant response rating (0 to 100 scale), Blackgrass",[8]; 31 g ai/ha Preemergence,30
same,"Plant response rating (0 to 100 scale), Blackgrass",[8]; 125 g ai/ha Preemergence,50
same,Kochia plant response rating,[9]; [30],80
same,"Plant response rating (0 to 100 scale), Kochia",[9]; [31],90
same,"Plant response rating (0 to 100 scale), Ryegrass, Italian",[10]; 31 g ai/ha Preemergence,40
same,"Plant response rating (0 to 100 scale), Ryegrass, Italian",[10]; 125 g ai/ha Preemergence,80
same,Ragweed plant response rating,[11]; 31 g ai/ha Postemergence,90
same,Ragweed plant response rating,[11]; 125 g ai/ha Postemergence,90
same,Corn plant response rating,[12]; [30],60
same,"Plant response rating (0 to 100 scale), Corn",[12]; [31],90
same,"Plant response rating (0 to 100 scale), Wheat",[13]; 31 g ai/ha Preemergence,30
same,"Plant response rating (0 to 100 scale), Wheat",[13]; 125 g ai/ha Preemergence,80
same,"Plant response rating (0 to 100 scale), Kochia",[14]; 31 g ai/ha Preemergence,90
same,"Plant response rating (0 to 100 scale), Kochia",[14]; 125 g ai/ha Preemergence,100
same,"Plant response rating (0 to 100 scale), Corn",[15]; 31 g ai/ha Preemergence,10
same,"Plant response rating (0 to 100 scale), Corn",[15]; 125 g ai/ha Preemergence,80
same,"Oat, Wild plant response rating",[16]; [30],30
same,"Plant response rating (0 to 100 scale), Oat, Wild",[16]; [31],70
same,"Ryegrass, Italian plant response rating",[17]; 31 g ai/ha Postemergence,40
same,"Ryegrass, Italian plant response rating",[17]; 125 g ai/ha Postemergence,90
same,"Plant response rating (0 to 100 scale), Goosegrass",[18]; 31 g ai/ha Preemergence,30
same,"Plant response rating (0 to 100 scale), Goosegrass",[18]; 125 g ai/ha Preemergence,100
same,"Plant response rating, Rice",[19],25
same,"Pigweed, Palmer plant response rating",[20]; 31 g ai/ha Postemergence,70
same,"Pigweed, Palmer plant response rating",[20]; 125 g ai/ha Postemergence,100
same,Goosegrass plant response rating,[21]; [30],30
same,"Plant response rating (0 to 100 scale), Goosegrass",[21]; [31],80
same,"Plant response rating (0 to 100 scale), Blackgrass",[22],60
same,"Plant response rating, Sedge, Umbrella",[23],80
same,Horseweed plant response rating,[24]; [30],90
same,"Plant response rating (0 to 100 scale), Horseweed",[24]; [31],100
same,"Plant response rating, Ducksalad",[25],65
same,"Plant response rating, Barnyardgrass",[26],35
same,"Plant response rating (0 to 100 scale), Ragweed",[27]; 31 g ai/ha Preemergence,50
same,"Plant response rating (0 to 100 scale), Ragweed",[27]; 125 g ai/ha Preemergence,100
same,Soybean plant response rating,[28]; 31 g ai/ha Postemergence,60
same,Soybean plant response rating,[28]; 125 g ai/ha Postemergence,70
same,Wheat plant response rating,[29]; 31 g ai/ha Postemergence,70
same,Wheat plant response rating,[29]; 125 g ai/ha Postemergence,80
